# Data as given in US11083735B2, “Methods for treating sleep disorders, sleep disturbances, and related symptoms using aminosterol compositions” (Enterin, Inc., priority 2017, dated 2021).
# What was measured:
# [1] = test system: patients with PD and constipation; test: Phase 2 trial Stage 2 (daily dosing): bowel function, stool related indices; type: in vivo, human; settings: for response rate: Stage 2 daily dosing
# Excerpt: (2) Rome-IV Criteria for Constipation (7 criteria, with constipation diagnosis requiring two or more of the following: (i) straining during at least 25% of defecations, (ii) lumpy or hard stools in at least 25% of defecations, (iii) sensation of incomplete evacuation for at least 25% of defecations, (iv) sensation of anorectal obstruction/blockage for at least 25% of defecations; (v) manual maneuvers to facilitate at least 25% of defecations; (vi) fewer than 3 defecations per week; and (vii) loose stools are rarely present without the use of laxatives;
# (3) Constipation—Ease of Evacuation Scale (from 1-7, with 7=incontinent, 4=normal, and 1=manual disimpaction);
# (4) Bristol Stool Chart, which is a patient-friendly means of categorizing stool characteristics (assessment of stool consistency is a validated surrogate of intestinal motility) and Stool Diary;
# (14) Patient Assessment of Constipation Symptoms (PAC-SYM);
# (15) Patient Assessment of Constipation Quality of Life (PAC-QOL);
# In Stage 2, 34 patients were evaluated.
# The primary efficacy outcome variable was whether or not a subject was a “success” or “failure”. This is an endpoint based on subject diary entries for the “fixed dose” period prior to the endpoint assessment defined as average complete stool frequency increase by 1 or more over baseline, or 3 or more complete spontaneous stools/week. The subject was deemed a “success” if s/he met one or more of the criteria listed above, otherwise the subject was deemed a “failure”. The primary analysis was based on all subjects with a baseline assessment and an assessment at the end of the “fixed-dose” period and was a comparison of the proportion of successes with 0.10 (the null hypothesis corresponding to no treatment effect).
# The proportion of subjects for whom the drug was a success was estimated with a binomial point estimate and corresponding 95% confidence interval. A secondary analysis compared the proportions of subjects who are deemed a success at the end of the randomized fixed-dose period between those randomized to the squalamine (ENT-01) arm and those randomized to the placebo arm. A Fisher's exact test was used to compare the proportions of subjects who were deemed a success at the end of randomization period between the two randomized arms.
# [2] = test system: patients with PD and constipation; test: Phase 2 trial: adverse events, all dosed patients (Stage 1 and 2); type: in vivo, human
# Method: Safety and Adverse Event (AE) Profile: Fifty patients were enrolled and 44 were dosed. In Stage 1, 10 patients were dosed, 1 (10%) withdrew prior to completion and 9 (90%) completed dosing. In stage 2, 6 (15%) patients had ≥3 CSBM/week at the end of the run-in period and were excluded, 34 patients were dosed and bowel response was assessable in 31 (91%). Two patients (5.8%) were terminated prior to completion because of recurrent dizziness, and 3 others withdrew during dosing (8.8%): 2 because of diarrhea and 1 because of holiday. Fifteen patients were randomized.
# Most AEs were confined to the GI tract (88% in Stage 1 and 63% in Stage 2). The most common AE was nausea which occurred in 4/10 (40%) patients in Stage 1 and in 18/34 (52.9%) in Stage 2 (Table 6). Diarrhea occurred in 4/10 (40%) patients in Stage 1 and 15/34 (44%) in Stage 2. One patient withdrew because of recurrent diarrhea. Other GI related AEs included abdominal pain 11/44 […], flatulence 3/44 (6.8%), vomiting 3/44 (6.8%), worsening of acid reflux 2/44 (4.5%), and worsening of hemorrhoids 1/44 (2.2%). […] The only other noteworthy AE was dizziness 8/44 (18%). Dizziness was graded as moderate in one patient who was receiving an alpha-adrenergic blocking agent (Terazosin). This patient was withdrawn from the study and recovered spontaneously.
smiles,measurement,setting,value
"CC(C)[C@@H](CC[C@@H](C)[C@H]1CC[C@H]2[C@@H]3[C@H](O)C[C@H]4C[C@@H](NCCCNCCCCN)CC[C@]4(C)[C@H]3CC[C@]12C)OS(=O)(=O)O (single isomer, unassigned; ent-01) [ENT-01]",Median efficacious dose,[1]; Stage 2,100 mg
same,"CSBM, Fixed dose (mean, SD)","[1]; Stage 2, Table 12, baseline 1.2 (0.90)",3.8
same,"PAQ-SYM, Fixed dose (Mean, SD)","[1]; Stage 2, Table 12, baseline 1.3 (0.45)",1.1
same,"PAQ-QOL, Fixed dose (Mean, SD)","[1]; Stage 2, Table 12, baseline 1.4 (0.49)",1.2
same,"Rescue meds, Fixed dose (Mean, SD)","[1]; Stage 2, Table 12, baseline 1.8 (1.92)",0.3
same,"SBM, Fixed dose (mean, SD)","[1]; Stage 2, Table 12, baseline 2.6 (1.45)",4.5
same,"Consistency, Fixed dose (mean, SD)","[1]; Stage 2, Table 12, baseline 2.7 (1.20)",4.1
same,"Ease, Fixed dose (Mean, SD)","[1]; Stage 2, Table 12, baseline 3.2 (0.73)",3.7
same,"PAC-SYM, Fixed dose (mean, SD)","[1]; Stage 2, dosed patients n = 34, baseline 1.3 (0.45)",1.1 (0.49)
same,"PAC-QOL total, Fixed dose (mean, SD)","[1]; Stage 2, dosed patients n = 34, baseline 1.4 (0.49)",1.2 (0.59)
same,"CSBM, Fixed dose (mean, SD)","[1]; Stage 2, dosed patients n = 34, weekly average, baseline 1.2 (0.90)",3.8 (2.40)
same,"Suppository use, Fixed dose (mean, SD)","[1]; Stage 2, dosed patients n = 34, weekly average, baseline 1.8 (1.92)",0.3 (0.67)
same,"SBM, Fixed dose (mean, SD)","[1]; Stage 2, dosed patients n = 34, weekly average, baseline 2.6 (1.45)",4.5 (2.21)
same,"Consistency, Fixed dose (mean, SD)","[1]; Stage 2, n = 34, Bristol stool scale 1-7, 1 = separate hard lumps, 7 = liquid consistency, baseline 2.7 (1.20)",4.1 (2.13)
same,"Ease of passage, Fixed dose (mean, SD)","[1]; Stage 2, n = 34, Ease of evacuation scale, 1-manual disimpaction, 7 = incontinent, baseline 3.2 (0.73)",3.7 (1.19)
same,"CSBM, Wash-out (Mean, SD)","[1]; Stage 2, wash-out period, baseline 1.2 (0.90)",1.8 (1.19)
same,"PAQ-SYM, Wash-out (Mean, SD)","[1]; Stage 2, wash-out period, baseline 1.3 (0.45)",1.1 (0.60)
same,"PAQ-QOL, Wash-out (Mean, SD)","[1]; Stage 2, wash-out period, baseline 1.4 (0.49)",1.2 (0.63)
same,"Rescue meds, Wash-out (Mean, SD)","[1]; Stage 2, wash-out period, baseline 1.8 (1.92)",1.0 (1.40)
same,"SBM, Wash-out (Mean, SD)","[1]; Stage 2, wash-out period, baseline 2.6 (1.45)",3.2 (1.80)
same,"Consistency, Wash-out (Mean, SD)","[1]; Stage 2, wash-out period, baseline 2.7 (1.20)",2.8 (1.39)
same,"Ease, Wash-out (Mean, SD)","[1]; Stage 2, wash-out period, baseline 3.2 (0.73)",3.3 (0.81)
same,response rate,[1]; 75 mg,26%
same,response rate,[1]; 250 mg,85.3%
same,Average CSBM/week,"[1]; at fixed dose, baseline 1.2",3.8
same,Use of rescue medication,"[1]; at fixed dose, baseline 1.8/week",0.3 /week
same,SBM,"[1]; at fixed dose, baseline 2.6",4.5
same,CSBM frequency,[1]; beyond the treatment period (wash-out),remained significantly above baseline value
same,Subjective indices of wellbeing (PAC-QOL),[1]; during treatment,improved
same,constipation symptoms (PAC-SYM),[1]; during treatment,improved
same,CSBM/week,"[1]; patients later randomized to Placebo (n = 9), Fixed dose period on drug, Baseline 1.6",3.3
same,"dose for a bowel response, mean",[1]; patients with baseline constipation of <1 CSBM/week,192 mg
same,"dose for a bowel response, mean",[1]; patients with ≥1 CSBM/week at baseline,120 mg
same,CSBM/week,"[1]; randomized cohort, Treatment (n = 6), Fixed dose, Baseline 0.8",3.2
same,CSBM/week,"[1]; randomized cohort, Treatment (n = 6), Randomized period",2.4
same,CSBM/week,"[1]; randomized cohort, Treatment (n = 6), Washout",0.9
same,"Consistency based on the Bristol stool scale, mean","[1]; treatment, from 2.7",4.1
same,ease of passage,"[1]; treatment, from 3.2",3.7
same,patients responding,[1]; within 75 mg to 250 mg,85%
same,worsening of hemorrhoids,[2]; 1/44,2.2%
same,worsening of acid reflux,[2]; 2/44,4.5%
same,flatulence,[2]; 3/44,6.8%
same,vomiting,[2]; 3/44,6.8%
same,dizziness,[2]; 8/44,18%
same,abdominal pain,[2]; 11/44,32%
